# ChEMBL document CHEMBL1275577, “Study of the in vitro activities of rifaximin and comparator agents against 536 anaerobic intestinal bacteria from the perspective of potential utility in pathology involving bowel flora” (Antimicrob Agents Chemother, 2009)
# How the values were obtained:
# Eubacterium biforme = experiment: Antimicrobial activity against Eubacterium biforme by Wadsworth agar dilution method; format: functional; details: Holdemanella biformis
# Desulfovibrio vulgaris = experiment: Antimicrobial activity against Desulfovibrio vulgaris by Wadsworth agar dilution method; format: functional; details: Nitratidesulfovibrio vulgaris
# [1] = system: Clostridium aminobutyricum; experiment: Antimicrobial activity against Clostridium aminobutyricum by Wadsworth agar dilution method; format: functional
# [2] = system: Coprobacillus cateniformis; experiment: Antimicrobial activity against Coprobacillus cateniformis by Wadsworth agar dilution method; format: functional
# Anaerococcus prevotii = experiment: Antimicrobial activity against Anaerococcus prevotii by Wadsworth agar dilution method; format: functional
# Holdemania filiformis = experiment: Antimicrobial activity against Holdemania filiformis by Wadsworth agar dilution method; format: functional
# [3] = system: Peptoniphilus asaccharolyticus; experiment: Antimicrobial activity against Peptoniphilus asaccharolyticus by Wadsworth agar dilution method; format: functional
# [4] = system: Paraclostridium bifermentans; experiment: Antimicrobial activity against Clostridium bifermentans by Wadsworth agar dilution method; format: functional
# Clostridium butyricum = experiment: Antimicrobial activity against Clostridium butyricum by Wadsworth agar dilution method; format: functional
# [5] = system: Bifidobacterium adolescentis; experiment: Antimicrobial activity against Bifidobacterium adolescentis by Wadsworth agar dilution method; format: functional
# Clostridium hathewayi = experiment: Antimicrobial activity against Clostridium hathewayi by Wadsworth agar dilution method; format: functional; details: Hungatella hathewayi
# Eubacterium saburreum = experiment: Antimicrobial activity against Eubacterium saburreum by Wadsworth agar dilution method; format: functional; details: Lachnoanaerobaculum saburreum
# Clostridium septicum = experiment: Antimicrobial activity against Clostridium septicum by Wadsworth agar dilution method; format: functional
# [6] = system: Catenibacterium mitsuokai; experiment: Antimicrobial activity against Catenibacterium mitsuokai by Wadsworth agar dilution method; format: functional
# Tissierella praeacuta = experiment: Antimicrobial activity against Clostridium hastiforme by Wadsworth agar dilution method; format: functional
# Porphyromonas = experiment: Antimicrobial activity against Porphyromonas sp. by Wadsworth agar dilution method; format: functional
# Fusobacterium mortiferum = experiment: Antimicrobial activity against Fusobacterium mortiferum by Wadsworth agar dilution method in presence of beta-lactamase inhibitor Sulbactam; format: functional
# Bacteroides caccae = experiment: Antimicrobial activity against Bacteroides caccae by Wadsworth agar dilution method; format: functional
# [7] = system: Desulfovibrio fairfieldensis; experiment: Antimicrobial activity against Desulfovibrio fairfieldensis by Wadsworth agar dilution method; format: functional
# Prevotella intermedia = experiment: Antimicrobial activity against Prevotella intermedia by Wadsworth agar dilution method; format: functional
# [8] = system: Clostridium lactatifermentans; experiment: Antimicrobial activity against Clostridium lactatifermentans by Wadsworth agar dilution method; format: functional; details: Anaerotignum lactatifermentans
# Anaerococcus tetradius = experiment: Antimicrobial activity against Anaerococcus tetradius by Wadsworth agar dilution method; format: functional
# Clostridium spiroforme = experiment: Antimicrobial activity against Clostridium spiroforme by Wadsworth agar dilution method; format: functional; details: Thomasclavelia spiroformis
# Lactobacillus sp. = experiment: Antimicrobial activity against Lactobacillus sp. by Wadsworth agar dilution method; format: functional
# Bacteroides nordii = experiment: Antimicrobial activity against Bacteroides nordii by Wadsworth agar dilution method; format: functional
# Prevotella disiens = experiment: Antimicrobial activity against Prevotella disiens by Wadsworth agar dilution method; format: functional
# Desulfovibrio sp. = experiment: Antimicrobial activity against Desulfovibrio sp. by Wadsworth agar dilution method; format: functional
# [9] = system: Paeniclostridium sordellii; experiment: Antimicrobial activity against Clostridium sordellii by Wadsworth agar dilution method; format: functional; details: Paraclostridium sordellii
# Finegoldia magna = experiment: Antimicrobial activity against Finegoldia magna by Wadsworth agar dilution method; format: functional
# Clostridioides difficile = experiment: Antimicrobial activity against Clostridium difficile by Wadsworth agar dilution method; format: functional
# [10] = Antimicrobial activity against Bifidobacterium infantis by Wadsworth agar dilution method; format: functional, Bifidobacterium longum subsp. infantis; details: Bifidobacterium longum
# Eggerthella lenta = experiment: Antimicrobial activity against Eggerthella lenta by Wadsworth agar dilution method; format: functional
# Ruminococcus torques = experiment: Antimicrobial activity against Ruminococcus torques by Wadsworth agar dilution method; format: functional; details: Mediterraneibacter torques
# [11] = system: Lactobacillus acidophilus; experiment: Antimicrobial activity against Lactobacillus acidophilus by Wadsworth agar dilution method; format: functional
# [12] = system: Clostridium acetobutylicum; experiment: Antimicrobial activity against Clostridium acetobutylicum by Wadsworth agar dilution method; format: functional
# Bifidobacterium breve = experiment: Antimicrobial activity against Bifidobacterium breve by Wadsworth agar dilution method; format: functional
# Desulfovibrio piger = experiment: Antimicrobial activity against Desulfovibrio piger by Wadsworth agar dilution method; format: functional
# Cutibacterium acnes = experiment: Antimicrobial activity against Propionibacterium acnes by Wadsworth agar dilution method; format: functional
# Eubacterium callanderi = experiment: Antimicrobial activity against Eubacterium callanderi by Wadsworth agar dilution method; format: functional
# Porphyromonas somerae = experiment: Antimicrobial activity against Porphyromonas somerae by Wadsworth agar dilution method; format: functional
# [13] = system: Parabacteroides distasonis; experiment: Antimicrobial activity against Parabacteroides distasonis by Wadsworth agar dilution method; format: functional
# [14] = system: Bifidobacterium pseudolongum; experiment: Antimicrobial activity against Bifidobacterium pseudolongum by Wadsworth agar dilution method; format: functional
# Porphyromonas uenonis = experiment: Antimicrobial activity against Porphyromonas uenonis by Wadsworth agar dilution method; format: functional
# Clostridium cocleatum = experiment: Antimicrobial activity against Clostridium cocleatum by Wadsworth agar dilution method; format: functional; details: Thomasclavelia cocleata
# Clostridium tertium = experiment: Antimicrobial activity against Clostridium tertium by Wadsworth agar dilution method; format: functional
# Clostridium glycolicum = experiment: Antimicrobial activity against Clostridium glycolicum by Wadsworth agar dilution method; format: functional; details: Terrisporobacter glycolicus
# [15] = system: Bacteroides thetaiotaomicron; experiment: Antimicrobial activity against Bacteroides thetaiotaomicron by Wadsworth agar dilution method; format: functional
structure (smiles),measurement,setting,value
CO[C@H]1/C=C/O[C@@]2(C)Oc3c(C)c(O)c4c(O)c(c5c(nc6cc(C)ccn65)c4c3C2=O)NC(=O)/C(C)=C\C=C\[C@H](C)[C@H](O)[C@@H](C)[C@@H](O)[C@@H](C)[C@H](OC(C)=O)[C@@H]1C [RIFAXIMIN],MIC50,Eubacterium biforme,0.5 µg/mL
same,MIC90,Eubacterium biforme,> 1020 µg/mL
same,MIC50,Desulfovibrio vulgaris,16 µg/mL
same,MIC90,Desulfovibrio vulgaris,332 µg/mL
same,MIC,[1],0.25 µg/mL
same,MIC50,[1],0.25 µg/mL
same,MIC90,[1],> 1020 µg/mL
same,MIC50,[2],0.5 µg/mL
same,MIC90,[2],> 1020 µg/mL
same,MIC,Anaerococcus prevotii,0.25 µg/mL
same,MIC50,Anaerococcus prevotii,0.25 µg/mL
same,MIC90,Anaerococcus prevotii,4 µg/mL
same,MIC50,Holdemania filiformis,0.5 µg/mL
same,MIC90,Holdemania filiformis,> 1020 µg/mL
same,MIC,[3],0.25 µg/mL
same,MIC50,[3],0.25 µg/mL
same,MIC90,[3],4 µg/mL
same,MIC,[4],0.25 µg/mL
same,MIC50,[4],0.25 µg/mL
same,MIC90,[4],> 1020 µg/mL
same,MIC,Clostridium butyricum,0.25 µg/mL
same,MIC50,Clostridium butyricum,0.25 µg/mL
same,MIC90,Clostridium butyricum,> 1020 µg/mL
same,MIC50,[5],0.5 µg/mL
same,MIC90,[5],> 1020 µg/mL
same,MIC50,Clostridium hathewayi,0.25 µg/mL
same,MIC90,Clostridium hathewayi,0.25 µg/mL
same,MIC50,Eubacterium saburreum,0.5 µg/mL
same,MIC90,Eubacterium saburreum,> 1020 µg/mL
same,MIC,Clostridium septicum,0.25 µg/mL
same,MIC50,Clostridium septicum,0.25 µg/mL
same,MIC90,Clostridium septicum,> 1020 µg/mL
same,MIC50,[6],0.5 µg/mL
same,MIC90,[6],> 1020 µg/mL
same,MIC,Tissierella praeacuta,0.25 µg/mL
same,MIC50,Tissierella praeacuta,0.25 µg/mL
same,MIC90,Tissierella praeacuta,> 1020 µg/mL
same,MIC,Porphyromonas,0.25 µg/mL
same,MIC50,Porphyromonas,0.25 µg/mL
same,MIC90,Porphyromonas,0.5 µg/mL
same,MIC50,Fusobacterium mortiferum,16 µg/mL
same,MIC90,Fusobacterium mortiferum,> 1020 µg/mL
same,MIC,Bacteroides caccae,0.25 µg/mL
same,MIC50,Bacteroides caccae,0.25 µg/mL
same,MIC90,Bacteroides caccae,> 0.5 µg/mL
same,MIC50,[7],16 µg/mL
same,MIC90,[7],332 µg/mL
same,MIC,Prevotella intermedia,0.25 µg/mL
same,MIC50,Prevotella intermedia,0.25 µg/mL
same,MIC90,Prevotella intermedia,0.5 µg/mL
same,MIC,[8],0.25 µg/mL
same,MIC50,[8],0.25 µg/mL
same,MIC90,[8],> 1020 µg/mL
same,MIC,Anaerococcus tetradius,0.25 µg/mL
same,MIC50,Anaerococcus tetradius,0.25 µg/mL
same,MIC90,Anaerococcus tetradius,4 µg/mL
same,MIC,Clostridium spiroforme,0.25 µg/mL
same,MIC50,Clostridium spiroforme,0.25 µg/mL
same,MIC90,Clostridium spiroforme,> 1020 µg/mL
same,MIC50,Lactobacillus sp.,0.5 µg/mL
same,MIC90,Lactobacillus sp.,> 1020 µg/mL
same,MIC,Bacteroides nordii,0.25 µg/mL
same,MIC50,Bacteroides nordii,0.25 µg/mL
same,MIC90,Bacteroides nordii,0.5 µg/mL
same,MIC,Prevotella disiens,0.25 µg/mL
same,MIC50,Prevotella disiens,0.25 µg/mL
same,MIC90,Prevotella disiens,0.5 µg/mL
same,MIC50,Desulfovibrio sp.,16 µg/mL
same,MIC90,Desulfovibrio sp.,332 µg/mL
same,MIC,[9],0.25 µg/mL
same,MIC50,[9],0.25 µg/mL
same,MIC90,[9],> 1020 µg/mL
same,MIC,Finegoldia magna,0.25 µg/mL
same,MIC50,Finegoldia magna,0.25 µg/mL
same,MIC90,Finegoldia magna,4 µg/mL
same,MIC50,Clostridioides difficile,0.25 µg/mL
same,MIC90,Clostridioides difficile,0.25 µg/mL
same,MIC50,[10],0.5 µg/mL
same,MIC90,[10],> 1020 µg/mL
same,MIC50,Eggerthella lenta,0.5 µg/mL
same,MIC90,Eggerthella lenta,> 1020 µg/mL
same,MIC,Ruminococcus torques,0.25 µg/mL
same,MIC50,Ruminococcus torques,0.25 µg/mL
same,MIC90,Ruminococcus torques,4 µg/mL
same,MIC50,[11],0.5 µg/mL
same,MIC90,[11],> 1020 µg/mL
same,MIC,[12],0.25 µg/mL
same,MIC50,[12],0.25 µg/mL
same,MIC90,[12],> 1020 µg/mL
same,MIC50,Bifidobacterium breve,0.5 µg/mL
same,MIC90,Bifidobacterium breve,> 1020 µg/mL
same,MIC50,Desulfovibrio piger,16 µg/mL
same,MIC90,Desulfovibrio piger,332 µg/mL
same,MIC50,Cutibacterium acnes,0.5 µg/mL
same,MIC90,Cutibacterium acnes,> 1020 µg/mL
same,MIC50,Eubacterium callanderi,0.5 µg/mL
same,MIC90,Eubacterium callanderi,> 1020 µg/mL
same,MIC,Porphyromonas somerae,0.25 µg/mL
same,MIC50,Porphyromonas somerae,0.25 µg/mL
same,MIC90,Porphyromonas somerae,0.5 µg/mL
same,MIC,[13],0.25 µg/mL
same,MIC50,[13],0.25 µg/mL
same,MIC90,[13],1 µg/mL
same,MIC50,[14],0.5 µg/mL
same,MIC90,[14],> 1020 µg/mL
same,MIC,Porphyromonas uenonis,0.25 µg/mL
same,MIC50,Porphyromonas uenonis,0.25 µg/mL
same,MIC90,Porphyromonas uenonis,0.5 µg/mL
same,MIC,Clostridium cocleatum,0.25 µg/mL
same,MIC50,Clostridium cocleatum,0.25 µg/mL
same,MIC90,Clostridium cocleatum,> 1020 µg/mL
same,MIC,Clostridium tertium,0.25 µg/mL
same,MIC50,Clostridium tertium,0.25 µg/mL
same,MIC90,Clostridium tertium,> 1020 µg/mL
same,MIC,Clostridium glycolicum,0.25 µg/mL
same,MIC50,Clostridium glycolicum,0.25 µg/mL
same,MIC90,Clostridium glycolicum,> 1020 µg/mL
same,MIC50,[15],1 µg/mL
same,MIC90,[15],> 1020 µg/mL
